According to a melting point compilation (Tetko et al.; mined from patent text by program, amines drawn as free bases though some values may be those of a salt):

Row | melting point | Compound
1 | 210 to 213 °C | CSc1nc(NC(=O)C2([N+](=O)[O-])C=CC=CC2S(N)(=O)=O)nn1C (configuration not stated)
2 | 144 °C | O=C(NOCC(O)CO)c1cc(Br)c(F)c(F)c1Nc1ccccc1F (configuration not stated)
3 | 334 °C | COc1cc2[nH]nc(C(=O)NN=Cc3ccc([N+](=O)[O-])o3)c2cc1OC
4 | 109 to 110 °C | CCOC(=O)C1=C(C)Nc2snc(CCCOCc3ccccc3)c2C1c1cccc([N+](=O)[O-])c1 (configuration not stated)
5 | 260 to 261 °C | CC(C)(O)Cn1cnc2c(N)nc3c(c21)CCCC3
6 | 101 to 102 °C | CCOC(=O)c1cnc2sc3c(n12)CCC3
7 | 236 to 237 °C | N#Cc1ccccc1N1CCN(Cc2nc3ccccc3[nH]2)CC1
8 | 145 to 147 °C | COc1ccc2[nH]c(SCc3nccc(N4CCCCC4)n3)nc2c1
9 | 112 °C | COc1ccc(Cn2cc(OCc3ccccc3)c(=O)cc2C(=O)NCCNCc2ccccc2)cc1
10 | 123 to 124 °C | CC(C)OCCN1C(=O)N2CCOC2(c2ccccc2)c2cc([N+](=O)[O-])ccc21 (configuration not stated)
11 | 87 to 88 °C | c1ccc2cc(Cn3ccnc3)ccc2c1
12 | 271 to 272 °C | CC(C)(C)C(NC(=O)c1ccc(Cl)cc1)Nc1c(Nc2cccc(F)c2)c(=O)c1=O (configuration not stated)
13 | 57 to 59.5 °C | Cc1nn(C)c(C(=O)N(C)C)c1[N+](=O)[O-]
14 | 160 °C | CN1CCCC1=NC(=O)Nc1ccc(Cl)c(Cl)c1
15 | 108 to 111 °C | CNC(=S)C1(c2cnc3ccccc3c2)CCCCC1=CC#N (configuration not stated)
16 | 128 to 129 °C | CCCCNc1cc(-c2c(-c3cccc(C)c3)nc3cccnn23)ccn1
17 | 210 °C | COc1ccc2c(c1OC)C(=Cc1ccccc1)c1ccccc1-2
18 | 260 to 262 °C | CS(=O)(=O)c1ccc(CC(=O)c2c(O)c3cccnc3n(-c3ccccc3)c2=O)cc1
19 | 209 to 211 °C | COC(=O)c1cc(S(N)(=O)=O)c(F)cc1N
20 | 114 to 115 °C | CN(C(=O)OC(C)(C)C)c1cc(Oc2ccc(Cc3ccccc3)cc2)ccc1N
21 | 254 to 255 °C | CS(=O)(=O)c1cccc(NC(=O)c2cnn3ccc(-c4ccc(C(F)(F)F)cc4)nc23)c1
22 | 169 to 171 °C | N#Cc1ccc(C(=O)Nc2ccc(-n3nc(C(F)(F)F)cc3C(F)(F)F)cc2)cc1
23 | 144 to 145 °C | Cc1ccc2nc(C)c(=O)n(-c3ccc(Cl)cc3)c2c1

Row | melting point | Compound
24 | 111 to 133 °C | N=C(N)N(CCCC(C=O)NC(=O)C1CCCN1C(=O)c1cc2ccccc2[nH]1)C(=O)OCc1ccccc1 (configuration not stated)
25 | 23 to 24 °C | NCCNC(c1ccccc1)c1ccccc1
26 | 186 °C | Cc1cnc(-c2cc(F)ccc2CNC(=O)c2nc3n(c(=O)c2OCc2ccccc2)CCOC3(C)C)o1
27 | 132 to 134 °C | O=C1Nc2cccc(-c3cccc(NS(=O)(=O)c4cc(S(=O)(=O)c5ccccc5)cs4)c3)c2/C1=C/c1ccc[nH]1
28 | > 250 °C | CC(C)c1nc2cc(NC(=O)c3c(C(=O)O)cnn3C)ccn2n1
29 | 140 °C | CC(C)(C)OC(=O)C=Cc1ccc(NC(=O)C=C2CC(C(=O)O)Nc3ccccc32)cc1 (racemic)
30 | 120 to 121 °C | O=C(N[C@H](Cc1cccc(Oc2ccccc2)c1)[C@@H](O)c1ccc(F)cc1)c1ccc(F)c2ccccc12 (racemic)
31 | 102 to 105 °C | COc1ccc(C(C#N)=Cc2ccc(OC)c(OC3CCCC3)c2)cc1
32 | 138 to 158 °C | O=C(CCCCCCCCC(=O)OC1CC(c2ccccc2)N(O)C(c2ccccc2)C1)OC1CC(c2ccccc2)N(O)C(c2ccccc2)C1 (configuration not stated)
33 | 162 to 166 °C | Nc1nc(OCc2ccccc2)c2ncn(CCC3COP(=O)(OCc4ccccc4)OC3)c2n1 (configuration not stated)
34 | 227 to 229 °C | CCNC1CCN(c2c(F)cc3c(=O)c(C(=O)O)cn(CC)c3c2F)C1 (configuration not stated)
35 | 56 to 58 °C | CC(Oc1cc(Cl)ccc1Cl)C(=O)OCc1ccccc1 (configuration not stated)
36 | 92 to 101 °C | COc1ccc(CSc2ccc(S(=O)(=O)N=CN(C)C)s2)cc1
37 | 140 to 143 °C | COc1cccc(F)c1-c1cc(NC(=O)C2CCNCC2)ncn1
38 | 131 to 133 °C | CC(C)(C)c1ccc(S(=O)(=O)N2CCCC2=O)cc1
39 | 108 to 110 °C | COC(=O)c1ccc(S(C)(=O)=O)c(C=O)c1C
40 | 70 to 72 °C | Cc1ccc(CNc2nc(Cl)nc(OCC(F)(F)F)n2)o1
41 | 196 °C | FC(F)(F)c1cc(Br)c2nc(N3CCN(c4ncccc4C(F)(F)F)CC3)[nH]c2c1
42 | 212 °C | CC(=O)Nc1nc(CCc2ccc(N)cc2)c(C(=O)O)s1
43 | 176 to 177 °C | COc1cc(Br)c2nc(-c3ccc(OC)c(F)c3)cc(Cl)c2c1
44 | 142 to 143 °C | O=C1c2ccccc2C(=O)N1Cc1ccc(Cl)nc1
45 | 249 to 252 °C | CCn1cc(C(=O)O)c(=O)c2cc(F)c(S(=O)(=O)CC)nc21
46 | 150 to 152 °C | CC(C)(C)OC(=O)NC1CCCCCC=CC2CC2(C(=O)NS(=O)(=O)C2CC2)NC(=O)C2CC(OC(=O)c3cnccn3)CN2C1=O (configuration not stated)

Row | melting point | Compound
47 | 122 °C | N#CC(=Cc1ccccc1F)C(O)C#N (configuration not stated)
48 | 130 to 132 °C | Cc1ccc(OCC#CI)c(Cl)n1
49 | 89 to 90 °C | COC(=O)c1c(Cl)cc(Cl)cc1NC(=O)CSc1cccc(OC)c1
50 | 181 to 183 °C | CNC(=O)c1c(-c2ccccc2)noc1C=C(N)c1ccccc1
51 | 222 to 225 °C | NC(=O)c1ccccc1-c1n[nH]c(-c2ccccc2)n1
52 | 212 to 214 °C | COc1cccc(Cc2nc3n(-c4c(Cl)cc(C=O)cc4Cl)[nH]c(C(C)C)c-3c(=O)n2)c1
53 | 80 °C | Cc1ccc(NC#N)c(-c2ccccc2)c1
54 | 130 to 132 °C | CC(CN(C)C)Oc1ccc(-c2n[nH]c3ncccc23)cc1 (configuration not stated)
55 | 206 to 208 °C | CCCOc1ccc(F)c2c(=O)c(-c3ccc(OC)cc3)cn(CCN3CCOCC3)c12
56 | 227 to 229 °C | CC1=C(C#N)C(c2cccc3ncc(-c4ccccc4)cc23)C(C(=O)OC(C)C)=C(N)N1 (configuration not stated)
57 | 160 °C | CC(C#CC1CC(Oc2ccc(F)cc2Cl)C1)N(O)C(N)=O (single isomer, unassigned; (+))
58 | 159 to 161 °C | c1ccc(-c2cc(N3CCNCC3)nc(-c3ccccn3)n2)nc1
59 | 110 °C | CCCNC(=O)c1cc(-c2ccc(OC)cc2)nn(CC2CCCC2)c1=O
60 | 138 to 139 °C | O=C(O)CCc1cnoc1-c1ccc(Cl)s1
61 | 221 to 222 °C | CC(C)(C)N1C(=O)c2cnc(-c3ccccc3)nc2Nc2ccccc21
62 | 126 to 128 °C | O=C(O)CN1CCC(OC(c2ccc(F)cc2)c2ccc(F)cc2)CC1
63 | 79 to 82 °C | CC(C)(C)c1ccc(OC2CCOC2)c(N)c1 (configuration not stated)
64 | 252 to 253 °C | O=C(O)C1=Cc2cc(Cl)c(Sc3ccc(Cl)cc3)cc2OC1C(F)(F)F (configuration not stated)
65 | 101 to 105 °C | CCCN(Cc1ccc(-c2ccccc2-c2nnn[nH]2)cc1)c1nn(C)cc1C(=O)O
66 | 225 to 227 °C | COc1ccc(-c2cnn3c(-c4cccc(NC(=O)CC(C)C)c4)ccnc23)cc1
67 | 141 °C | CON(Cc1ccc(F)cc1)C(=O)c1nc2n(c(=O)c1OCc1ccccc1)CCOC2(C)C
68 | 284 to 285 °C | CS(=O)(=O)Nc1ccc(CCc2n[nH]c3c2c(=O)n(-c2ccccc2)c2ncccc32)cc1
69 | 99 to 100 °C | O=CCC(c1ccccc1)c1cc(Br)ccc1OCc1ccccc1 (configuration not stated)

Row | melting point | Compound
70 | 212 to 218 °C | CC1(C)C(=O)C(C)(C)c2cc([N+](=O)[O-])c([N+](=O)[O-])cc21
71 | 225 to 230 °C | COc1cc2c(cc1OC)NC1=C(C2)C(=O)N(C)CN1
72 | 116 to 118 °C | CN1CCC(c2nn(-c3ccc(N)cc3)c3ccccc23)CC1
73 | 136 to 137 °C | CCCOc1ccc(C(=O)CBr)cc1-c1nc2c(CCC)nn(C)c2c(=O)[nH]1
74 | 258 to 260 °C | COc1ccc2c(c1)c1c(n2C(=O)c2ccc(F)cc2)CCC(C(=O)O)C1 (configuration not stated)
75 | 204 °C | CC(C)c1nc2c(C(F)(F)F)cccc2c(O)c1C(=O)O
76 | 52 to 53 °C | O=C(OCOCOC(=O)c1c(F)cccc1F)c1c(F)cccc1F
77 | 174 to 175 °C | Cn1nnc(-c2ccc(OCC(O)CNCCOc3ccc(O)c(C(N)=O)c3)cc2)n1 (configuration not stated)
78 | 138 to 139 °C | CC(C)N1CC(C(=O)c2ccc(Cc3ccc(F)cc3)s2)=C(O)C1=O
79 | 266 to 267 °C | N#Cc1ccc(-c2cc(-c3ccc(O)c(F)c3)nc3ccc(O)cc23)cc1
80 | 226 to 228 °C | O=C(O)Cc1ccc2c(c1)sc1c(Cl)cccc12
81 | 87 to 90 °C | O=C(O)c1cc(F)c(F)c(C(F)(F)F)c1F
82 | > 250 °C | CCOC(=O)c1nc2c(=O)[nH]c3ccc(-n4ccnc4)cc3n2c1C
83 | 131 °C | OCc1cn2c(n1)sc1ccccc12
84 | 200 to 202 °C | CCN(CC)C(=O)c1ccc2cc(-c3csc(N(C)S(=O)(=O)c4ccccc4)n3)c(=O)[nH]c2c1
85 | 55 to 57 °C | CC1(C)C=C(C(=O)NCC2COC(C)(C)O2)C(C)(C)N1 (configuration not stated)
86 | 89 to 92 °C | CC(Cc1c[nH]c2ccccc12)NC(=O)Oc1ccccc1 (configuration not stated)
87 | 121 to 122 °C | O=C(CCNC(=O)OCc1ccccc1)NCCSC(=O)OCc1ccccc1
88 | 95 to 97 °C | CN(CCOc1ccc(CCO)cc1)c1nc2ccccc2o1
89 | 183 to 184 °C | Cc1ccc2nc(-c3cc(C(F)F)nn3-c3ccc(S(C)(=O)=O)cc3)sc2c1
90 | 202 to 203 °C | COc1ccc(-c2ccc3cnc(Nc4ccc5c(c4)N(S(C)(=O)=O)CCC5)nn23)cn1
91 | 149 to 150 °C | CSc1nnc(-c2ccc3ncn(-c4cccc(OC(F)(F)F)c4)c3c2)o1

Row | Compound | melting point
92 | O=C(OCC1CC1)c1ncn2c1[C@@H]1CCCN1C(=O)c1cc(Cl)ccc1-2 | 146 to 148 °C
93 | Cn1c(=O)oc2cc(CCN3CCN(c4ccc(F)cc4)CC3)ccc21 | 161 to 164 °C
94 | COc1ccc(C2=NCC(NN)=Nc3ccc(Cl)cc32)cc1 | 213 to 215 °C
95 | O=S(=O)(CC1(O)CN2CCC1CC2)c1ccc(-c2ccccc2)cc1 (configuration not stated) | 203 to 205 °C
96 | O=C1C=C(NC(=O)C(=O)c2cn(Cc3ccc(Cl)cc3)c3ccc([N+](=O)[O-])cc23)CO1 | 248 to 250 °C
97 | CCOC(=O)C1=C(N2CC2C(N)=O)CCCC1 (configuration not stated) | 101 to 104 °C
